According to the NIST ThermoML archive (doi:10.1021/je034087q):

Assay: xn = mol fraction of the nth substance listed

CCCCC [pentane] + O=C=O
Details	mass density [kg/m3]
312.35 K, 7770 kPa, Fluid (supercritical or subcritical phases), x2 = 0.96	475
312.35 K, 7780 kPa, Fluid (supercritical or subcritical phases), x2 = 0.96	479
312.35 K, 7790 kPa, Fluid (supercritical or subcritical phases), x2 = 0.96	482
312.35 K, 7800 kPa, Fluid (supercritical or subcritical phases), x2 = 0.96	488
312.35 K, 7810 kPa, Fluid (supercritical or subcritical phases), x2 = 0.96	491
312.35 K, 7840 kPa, Fluid (supercritical or subcritical phases), x2 = 0.96	501
312.35 K, 7870 kPa, Fluid (supercritical or subcritical phases), x2 = 0.96	511
312.35 K, 7890 kPa, Fluid (supercritical or subcritical phases), x2 = 0.96	522
312.35 K, 7920 kPa, Fluid (supercritical or subcritical phases), x2 = 0.96	532
312.35 K, 7970 kPa, Fluid (supercritical or subcritical phases), x2 = 0.96	544
312.35 K, 8010 kPa, Fluid (supercritical or subcritical phases), x2 = 0.96	556
312.35 K, 8070 kPa, Fluid (supercritical or subcritical phases), x2 = 0.96	568
312.35 K, 8150 kPa, Fluid (supercritical or subcritical phases), x2 = 0.96	581
312.35 K, 8230 kPa, Fluid (supercritical or subcritical phases), x2 = 0.96	594
312.35 K, 8360 kPa, Fluid (supercritical or subcritical phases), x2 = 0.96	608
312.35 K, 8530 kPa, Fluid (supercritical or subcritical phases), x2 = 0.96	624
312.35 K, 8740 kPa, Fluid (supercritical or subcritical phases), x2 = 0.96	639
312.35 K, 9020 kPa, Fluid (supercritical or subcritical phases), x2 = 0.96	656
312.35 K, 9400 kPa, Fluid (supercritical or subcritical phases), x2 = 0.96	674
312.35 K, 9600 kPa, Fluid (supercritical or subcritical phases), x2 = 0.96	686
315.55 K, 7940 kPa, Fluid (supercritical or subcritical phases), x2 = 0.947	466
315.55 K, 7960 kPa, Fluid (supercritical or subcritical phases), x2 = 0.947	472
315.55 K, 7970 kPa, Fluid (supercritical or subcritical phases), x2 = 0.947	475
315.55 K, 8010 kPa, Fluid (supercritical or subcritical phases), x2 = 0.947	484
315.55 K, 8040 kPa, Fluid (supercritical or subcritical phases), x2 = 0.947	492
315.55 K, 8070 kPa, Fluid (supercritical or subcritical phases), x2 = 0.947	502
315.55 K, 8110 kPa, Fluid (supercritical or subcritical phases), x2 = 0.947	512
315.55 K, 8150 kPa, Fluid (supercritical or subcritical phases), x2 = 0.947	522
315.55 K, 8200 kPa, Fluid (supercritical or subcritical phases), x2 = 0.947	532
315.55 K, 8250 kPa, Fluid (supercritical or subcritical phases), x2 = 0.947	543
315.55 K, 8320 kPa, Fluid (supercritical or subcritical phases), x2 = 0.947	555
315.55 K, 8390 kPa, Fluid (supercritical or subcritical phases), x2 = 0.947	566
315.55 K, 8490 kPa, Fluid (supercritical or subcritical phases), x2 = 0.947	578
315.55 K, 8610 kPa, Fluid (supercritical or subcritical phases), x2 = 0.947	592
315.55 K, 8760 kPa, Fluid (supercritical or subcritical phases), x2 = 0.947	605
315.55 K, 8970 kPa, Fluid (supercritical or subcritical phases), x2 = 0.947	620
315.55 K, 9200 kPa, Fluid (supercritical or subcritical phases), x2 = 0.947	635
315.55 K, 9520 kPa, Fluid (supercritical or subcritical phases), x2 = 0.947	650
315.55 K, 9940 kPa, Fluid (supercritical or subcritical phases), x2 = 0.947	666
315.55 K, 10200 kPa, Fluid (supercritical or subcritical phases), x2 = 0.947	676
315.55 K, 10490 kPa, Fluid (supercritical or subcritical phases), x2 = 0.947	684
315.55 K, 10840 kPa, Fluid (supercritical or subcritical phases), x2 = 0.947	695
315.55 K, 11480 kPa, Fluid (supercritical or subcritical phases), x2 = 0.947	711
318.15 K, 7980 kPa, Fluid (supercritical or subcritical phases), x2 = 0.901	590
318.15 K, 8070 kPa, Fluid (supercritical or subcritical phases), x2 = 0.901	594
318.15 K, 8170 kPa, Fluid (supercritical or subcritical phases), x2 = 0.901	600
318.15 K, 8280 kPa, Fluid (supercritical or subcritical phases), x2 = 0.901	606
318.15 K, 8380 kPa, Fluid (supercritical or subcritical phases), x2 = 0.901	613
318.15 K, 8520 kPa, Fluid (supercritical or subcritical phases), x2 = 0.901	619
318.15 K, 8660 kPa, Fluid (supercritical or subcritical phases), x2 = 0.901	625
318.15 K, 8810 kPa, Fluid (supercritical or subcritical phases), x2 = 0.901	631
318.15 K, 8980 kPa, Fluid (supercritical or subcritical phases), x2 = 0.901	638
318.15 K, 9180 kPa, Fluid (supercritical or subcritical phases), x2 = 0.901	644
318.15 K, 9400 kPa, Fluid (supercritical or subcritical phases), x2 = 0.901	651
318.15 K, 9440 kPa, Fluid (supercritical or subcritical phases), x2 = 0.901	654
318.15 K, 9550 kPa, Fluid (supercritical or subcritical phases), x2 = 0.901	656
318.15 K, 9720 kPa, Fluid (supercritical or subcritical phases), x2 = 0.901	661
318.15 K, 9910 kPa, Fluid (supercritical or subcritical phases), x2 = 0.901	666
318.15 K, 10010 kPa, Fluid (supercritical or subcritical phases), x2 = 0.901	669
318.15 K, 10130 kPa, Fluid (supercritical or subcritical phases), x2 = 0.901	670
318.15 K, 10260 kPa, Fluid (supercritical or subcritical phases), x2 = 0.901	674
318.15 K, 10370 kPa, Fluid (supercritical or subcritical phases), x2 = 0.901	677
318.15 K, 10560 kPa, Fluid (supercritical or subcritical phases), x2 = 0.901	680
318.15 K, 10680 kPa, Fluid (supercritical or subcritical phases), x2 = 0.901	683
318.15 K, 10880 kPa, Fluid (supercritical or subcritical phases), x2 = 0.901	685
318.15 K, 11070 kPa, Fluid (supercritical or subcritical phases), x2 = 0.901	689
318.15 K, 11290 kPa, Fluid (supercritical or subcritical phases), x2 = 0.901	694
318.15 K, 11490 kPa, Fluid (supercritical or subcritical phases), x2 = 0.901	697
318.15 K, 11650 kPa, Fluid (supercritical or subcritical phases), x2 = 0.901	698
318.15 K, 11890 kPa, Fluid (supercritical or subcritical phases), x2 = 0.901	702
318.15 K, 12110 kPa, Fluid (supercritical or subcritical phases), x2 = 0.901	705
318.15 K, 12380 kPa, Fluid (supercritical or subcritical phases), x2 = 0.901	710
318.15 K, 12600 kPa, Fluid (supercritical or subcritical phases), x2 = 0.901	713
318.15 K, 12940 kPa, Fluid (supercritical or subcritical phases), x2 = 0.901	716
318.15 K, 13280 kPa, Fluid (supercritical or subcritical phases), x2 = 0.901	722
318.15 K, 13690 kPa, Fluid (supercritical or subcritical phases), x2 = 0.901	727
318.15 K, 13870 kPa, Fluid (supercritical or subcritical phases), x2 = 0.901	728
318.15 K, 14050 kPa, Fluid (supercritical or subcritical phases), x2 = 0.901	732
318.15 K, 14410 kPa, Fluid (supercritical or subcritical phases), x2 = 0.901	734
318.15 K, 14620 kPa, Fluid (supercritical or subcritical phases), x2 = 0.901	736
318.15 K, 14900 kPa, Fluid (supercritical or subcritical phases), x2 = 0.901	738
318.15 K, Liquid, Other PVT measurement, x2 = 0.901	585
323.15 K, 2500 kPa, Fluid (supercritical or subcritical phases), x2 = 0.214	607
